In publication PMC8706998, “Lipid Nanocarriers-Loaded Nanocomposite as a Suitable Platform to Release Antibacterial and Antioxidant Agents for Immediate Dental Implant Placement Restorative Treatment” (Pharmaceutics, 2021):
Where “and” joins values, the source holds several entries; their conditions need not be identical. Identical values can stand only once.

Experiments:
[1] = CPX release study, dialysis tube method; format: physicochemical; conditions: from BioQ-CPX, citrate buffer pH 5.5 + acetic acid, after 1.5 h
Description: (§1) The system was submerged in 15 mL of the same medium; (b) Franz diffusion cells (Permeagear, flat flange joint, 9 mm orifice diameter, 15 mL acceptor volume, SES GmbH-Analysesysteme, Bechenheim, Germany) consisting in a donor chamber filled with 10 mg of powder and soaked with 0.5 mL of citrate buffer pH 5.5, and an acceptor chamber filled with 15 mL of the same medium plus glacial acetic acid 0.01% (v/v). A cellulose dialysis membrane (Medicell Membranes, London, UK: MWCO: 12–14,000 Da) previously soaked with the acceptor fluid, was inserted between the two compartments.
(§2) QRC release studies were carried out using a modified transwell permeable support (0.45 µm) filled with 5 mg of the BioQ-CPX powder and soaked with 0.2 mL of citrate buffer pH 5.5. The entire system was dipped inside a beaker filled with 8 mL of 1-octanol as a suitable acceptor fluid. […] The experiments were carried out at 37 ± 0.5 °C under constant stirring and protected by light exposure while, immediately after sampling, opportune volumes of fresh acceptor fluid were added to maintain the sink conditions. Data are reported as means ± SE (n = 6). Drug release profiles were elaborated using OriginPro 8.5 software and fitted with semi-empirical model equations. Fittings were validated by using R^2 value where a p-value of less than 0.05 was considered statistically significant.

[2] = CPX release study, Franz diffusion cell with cellulose membrane; format: physicochemical; conditions: CPX release from BioQ-CPX, data up to 9 h
Description: as §1, §2

[3] = Ex vivo permeation/penetration experiments in Franz-type cells; format: in vitro ADME, pig; conditions: from 30 mg BioQ-CPX
Description: Tissue specimens were obtained from the vestibular area of the retromolar trigone derived from 6–8-month-old pigs supplied by the Municipal Slaughterhouse of Villabate (Palermo, Italy) since withdrawn from animals intended for human consumption. By a refrigerated transport box, the specimens were immediately transferred to the laboratory within 1 h from animal sacrifice and surgically treated to remove both adipose and connective tissues in excess. Afterward, they were dipped for 30 min in a 5% THR (w/v) isotonic solution and then stored at −80 °C for a minimum period of one week. Before the permeation/penetration experiments, tissue samples were accurately washed to remove the cryoprotectant, and, subsequently, thermal shocked to obtain the buccal mucosa. Briefly, tissue samples were dipped for 30 s in a pre-warmed (70 °C) isotonic solution, and then the mucosa was carefully peeled off from the connective tissue, obtaining the heat-separated epithelium along with the intact basal lamina. Finally, it was equilibrated in an isotonic solution for 3 h by replacing the medium every 15 min to remove all the biological matter, which could affect the analysis, before use.
The ex vivo permeation/penetration studies were carried out using vertical Franz-type diffusion cells. Briefly, appropriate sections of buccal mucosa were mounted between the donor and the acceptor chambers filled with 1 mL of citrate buffer pH 5.5 and 15 mL of citrate buffer pH 5.5 amended with acetic acid 0.1% (v/v), Acys 0.002% (w/v), and β-CD 3% (w/v). The whole system was equilibrated at 37 ± 0.5 °C for 30 min. Afterward, the medium was removed from the donor compartment, promptly replaced with 30 mg of BioQ-CPX, and soaked with 0.2 mL of citrate buffer pH 5.5. Every 30 min, aliquots (0.5 mL) were withdrawn from the acceptor chamber and immediately replaced with the same volume of fresh acceptor fluid to maintain the sink conditions. Experiments were carried out at 37 ± 0.5 °C in the dark and under constant stirring, being stopped at different time points ranging from 1 to 6 h. The amount of permeated QRC and CPX were quantified by UV–Vis analysis. Data are reported as means ± SE (n = 6).
Briefly, the mucosa was dipped into 2 mL of methanol and warmed up to 60 °C. The extraction procedure was performed twice, and the collected extraction liquors were transferred into a 10 mL flask and brought to volume with fresh methanol. Thus, QRC and CPX amounts were determined by UV–Vis analysis. Results are reported as means ± SE.

[4] = system: Staphylococcus aureus ATCC 25923 strain, growing as planktonic cells; experiment: Kill curve assay; format: cell-based; conditions: ca. 0.1 mg/mL CPX (highest amount in BioQ-CPX); data not shown
Description: Kill curve assays were performed to test the antimicrobial efficacy of BioQ-CPX, BioQ, and the Blank CTS matrix against the indicator pathogen Staphylococcus aureus ATCC 25923 strain, growing as planktonic cells. Briefly, a single colony of S. aureus strain was picked up and pre-cultivated (ca. 16 h) at 37 °C with shacking (160 rpm) in tryptone soy broth medium (hereinafter named as TSB; Merck, Milan, Italy). The same medium was solidified by adding 15 g/L of bacteriological agar when needed. Bacterial cells were then inoculated [0.05% v/v corresponding to ca. 5 × 10^5 colony forming units (CFU) per mL of culture] in TSB medium amended with increasing concentrations (i.e., 1, 2.5, and 5 mg/mL) of the above-mentioned samples. The set up bacterial cultures were challenged for 24 h according to the same pre-culturing conditions. The actual number of viable S. aureus CFU/mL—who survived the challenge exerted by BioQ-CPX, BioQ, and Blank matrix—was evaluated through the spot plate count method and compared to unchallenged cultures. The data are reported as average values (n = 3) of the CFU/mL in the logarithmic (Log10) scale with standard deviation (SD).

[5] = system: S. aureus cells growing as a biofilm; experiment: Biofilm inhibition, crystal violet staining; format: cell-based, Staphylococcus aureus; conditions: 5 mg BioQ-CPX in 200 μL culture, CPX at the same concentration as in BioQ-CPX; 24 h, 37 °C
Description: Briefly, pre-cultivated S. aureus cells for 16 h at 37 °C were inoculated (1% v/v corresponding to ca. 1 × 10^7 CFU/mL) in TSB medium. The set-up culture was aliquoted (200 μL) in a 96-well microtiter plate. […] The microtiter plate was then incubated for 24 h at 37 °C under static mode, allowing for bacterial biofilm formation. After the incubation period, bacterial cultures have been disposed, while each well was washed 3 time with 200 μL of sterile physiological (NaCl 0.9% w/v) solution to remove loosely adherent cells. Then, S. aureus biofilms were stained by adding 200 μL of an aqueous crystal violet (0.1% w/v) solution at room temperature for 15 min. Subsequently, wells were washed 5 times with 200 μL of physiological solution to remove the excess of unbound crystal violet and left to dry for 20 min at 65 °C. Finally, crystal violet was solubilized by adding 200 μL of an acetic acid (30% v/v) solution, the absorbance (Abs) being read at 600 nm using a DU-730 Life Science spectrophotometer (Beckman Coulter, Brea, CA, USA). Unchallenged cultures were used as reference biofilms (positive control), while wells containing only the medium utilized in this study were used as a negative control. The percentage of biofilm inhibition was calculated as follows: Biofilm inhibition (%)=(Abs positive control−Abs challenge)/Abs positive control×100

CPX released [1]: 80%
maximum amount accumulated into the mucosa ([3]; after 5 h): about 5 % of drugs dose
amount accumulated into the mucosa ([3]; first hour from application): about 4 % of dose
Structure (SMILES): O=C(O)c1cn(C2CC2)c2cc(N3CCNCC3)c(F)cc2c1=O [CPX, Ciprofloxacin]
Korsmeyer-Peppas n [2]: 0.8280 ± 0.0125 and 0.8280
Korsmeyer-Peppas with Tlag n [2]: 0.8293
First-Order k ([2]; time in hours): 0.1359
Korsmeyer-Peppas k ([2]; time in hours): 0.1134
Korsmeyer-Peppas with Tlag k ([2]; time in hours): 0.1113
Korsmeyer-Peppas with Tlag: Tlag ([2]; time in hours): −0.031
Zero-Order k ([2]; time in hours): 0.079
effect on bacterial growth [4]: did prevent bacterial growth
S. aureus biofilm formation inhibition [5]: ca. 55%
